In ChEMBL document CHEMBL5113380, “Functionalized quinoxalinones as privileged structures with broad-ranging pharmacological activities” (Eur J Med Chem, 2022):
Values after ≈ are worked out from the molar mass of the structure shown.

Legend:
[1] = target: Glutamate [NMDA] receptor; test: Displacement of [3H]kainic acid from NMDA receptor (unknown origin); assay type: protein-complex assay, Homo sapiens
[2] = Displacement of [3H]AMPA from NMDA receptor (unknown origin); assay type: protein-complex assay, Homo sapiens
[3] = target: Glutamate [NMDA] receptor; test: Displacement of [3H]CGP-39653 from NMDA receptor (unknown origin); assay type: protein-complex assay, Homo sapiens
[4] = target: Glutamate [NMDA] receptor; test: Displacement of [3H]DCKA from NMDA receptor (unknown origin); assay type: protein-complex assay, Homo sapiens
[5] = target: Kappa-type opioid receptor (Homo sapiens, UniProt P41145); test: Antagonist at KOR expressed in human U2OS cells measured by High content imaging based beta-arrestin translocation assay; assay type: cell-based
Chain of Kappa-type opioid receptor (P41145 whole entry): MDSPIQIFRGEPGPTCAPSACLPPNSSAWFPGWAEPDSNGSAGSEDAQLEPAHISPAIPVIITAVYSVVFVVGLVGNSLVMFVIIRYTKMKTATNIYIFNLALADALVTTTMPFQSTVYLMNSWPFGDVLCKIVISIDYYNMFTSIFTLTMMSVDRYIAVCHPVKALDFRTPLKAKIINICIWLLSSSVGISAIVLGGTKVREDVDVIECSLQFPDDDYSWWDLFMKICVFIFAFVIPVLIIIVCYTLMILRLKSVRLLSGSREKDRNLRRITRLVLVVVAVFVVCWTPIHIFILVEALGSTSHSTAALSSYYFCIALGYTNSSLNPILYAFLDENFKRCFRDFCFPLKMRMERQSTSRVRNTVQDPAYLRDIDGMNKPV

[6] = test system: B16-F10; test: Antiproliferative activity against mouse B16-F10 cells after 72 hrs by MTT assay; assay type: functional, cell-based; conditions: B16-F10, 72 h
[7] = target: T1, Fibroblast growth factor receptor 1 (Homo sapiens, UniProt P11362); test: Inhibition of FGFR1 (unknown origin) using ULight-JAK-1 (Tyr1023) peptide as substrate incubated for 90 mins at 10 uM and measured after 1 hr by LANCE Ultra TR-FRET assay relative to control
Target sequence in this assay (P11362 22-822 limits assumed): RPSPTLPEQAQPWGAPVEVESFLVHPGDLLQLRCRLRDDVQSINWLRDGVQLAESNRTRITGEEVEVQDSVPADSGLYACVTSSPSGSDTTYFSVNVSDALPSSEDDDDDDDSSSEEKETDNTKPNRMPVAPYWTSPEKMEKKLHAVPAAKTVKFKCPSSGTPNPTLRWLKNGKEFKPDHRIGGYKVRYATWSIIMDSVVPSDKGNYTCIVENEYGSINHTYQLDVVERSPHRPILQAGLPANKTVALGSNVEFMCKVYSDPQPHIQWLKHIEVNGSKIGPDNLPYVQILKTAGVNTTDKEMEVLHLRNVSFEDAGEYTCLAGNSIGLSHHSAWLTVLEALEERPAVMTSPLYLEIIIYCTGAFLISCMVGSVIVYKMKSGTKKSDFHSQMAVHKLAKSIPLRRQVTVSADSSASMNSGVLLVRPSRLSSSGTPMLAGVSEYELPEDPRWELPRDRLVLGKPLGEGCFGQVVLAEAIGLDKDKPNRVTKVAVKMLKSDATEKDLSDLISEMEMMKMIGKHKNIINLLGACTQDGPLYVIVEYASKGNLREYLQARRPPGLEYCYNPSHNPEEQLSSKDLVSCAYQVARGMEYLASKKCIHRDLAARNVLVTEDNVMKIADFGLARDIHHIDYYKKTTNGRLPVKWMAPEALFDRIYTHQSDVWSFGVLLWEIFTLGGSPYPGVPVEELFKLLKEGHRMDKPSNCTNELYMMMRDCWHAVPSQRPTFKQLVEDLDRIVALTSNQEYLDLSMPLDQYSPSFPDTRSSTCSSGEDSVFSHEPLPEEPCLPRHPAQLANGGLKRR

[8] = test system: NCI-H460; test: Antiproliferative activity against human NCI-H460 cells after 72 hrs by MTT assay; assay type: functional, cell-based; conditions: NCI-H460, 72 h
[9] = test system: HCT-116; test: Antiproliferative activity against human HCT-116 cells after 72 hrs by MTT assay; assay type: functional, cell-based; conditions: HCT-116, 72 h
[10] = test system: L02; test: Antiproliferative activity against human HL7702 cells after 72 hrs by MTT assay; assay type: functional, cell-based; conditions: L02, 72 h
[11] = test system: HeLa 229; test: Antiproliferative activity against human HeLa 229 cells after 72 hrs by MTT assay; assay type: functional, cell-based; conditions: HeLa 229, 72 h
[12] = target: T1, Fibroblast growth factor receptor 1; test: Inhibition of FGFR1 (unknown origin) using ULight-JAK-1 (Tyr1023) peptide as substrate incubated for 90 mins and measured after 1 hr by LANCE Ultra TR-FRET assay
Target sequence in this assay (P11362 whole entry): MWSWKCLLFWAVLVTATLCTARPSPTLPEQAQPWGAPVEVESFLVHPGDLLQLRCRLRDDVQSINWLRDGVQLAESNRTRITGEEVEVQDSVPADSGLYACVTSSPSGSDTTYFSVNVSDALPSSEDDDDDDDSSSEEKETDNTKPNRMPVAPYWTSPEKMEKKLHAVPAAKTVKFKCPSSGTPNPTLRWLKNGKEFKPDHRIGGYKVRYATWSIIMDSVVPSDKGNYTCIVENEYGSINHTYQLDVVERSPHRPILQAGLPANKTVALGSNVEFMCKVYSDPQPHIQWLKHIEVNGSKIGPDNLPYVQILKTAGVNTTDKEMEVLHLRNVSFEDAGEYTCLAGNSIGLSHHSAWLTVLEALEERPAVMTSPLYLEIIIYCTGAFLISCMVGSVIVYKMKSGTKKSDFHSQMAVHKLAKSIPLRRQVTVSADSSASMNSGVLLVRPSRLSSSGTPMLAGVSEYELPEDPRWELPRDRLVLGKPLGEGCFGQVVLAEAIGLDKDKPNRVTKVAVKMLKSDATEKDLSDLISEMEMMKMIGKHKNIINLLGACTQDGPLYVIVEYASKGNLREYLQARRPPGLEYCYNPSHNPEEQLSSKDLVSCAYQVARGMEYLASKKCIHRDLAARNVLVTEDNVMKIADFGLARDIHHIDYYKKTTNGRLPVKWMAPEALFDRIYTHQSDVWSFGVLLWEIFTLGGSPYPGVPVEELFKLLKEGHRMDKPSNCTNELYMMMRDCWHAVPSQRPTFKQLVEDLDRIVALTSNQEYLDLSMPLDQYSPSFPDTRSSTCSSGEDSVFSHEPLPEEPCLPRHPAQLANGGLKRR

[13] = test system: Rattus norvegicus; test: Antiinflammatory activity in rat model of hind paw edema assessed as paw thickness at 0.9 mg per 100 g of body weight measured after 4 hrs; assay type: functional
[14] = target: Glutamate [NMDA] receptor (Homo sapiens) (UniProt Q05586+Q12879+Q13224+O15399+O60391+Q14957+Q8TCU5); test: Displacement of [3H]DCKA from NMDA receptor (unknown origin) at 10 ng/ml relative to control; assay type: protein-complex assay; conditions: filed as antagonist
[15] = test system: Escherichia coli; test: Antibacterial activity against Escherichia coli; assay type: functional
[16] = test system: Klebsiella pneumoniae; test: Antibacterial activity against Klebsiella pneumoniae; assay type: functional
[17] = test system: Shigella dysenteriae; test: Antibacterial activity against Shigella dysenteriae; assay type: functional
[18] = test system: Enterococcus faecalis; test: Antibacterial activity against Enterococcus faecalis; assay type: functional
[19] = test system: Bacillus cereus; test: Antibacterial activity against Bacillus cereus; assay type: functional
[20] = test system: Geobacillus stearothermophilus; test: Antibacterial activity against Bacillus stearothermophilus; assay type: functional
[21] = test system: Pseudomonas aeruginosa; test: Antibacterial activity against Pseudomonas aeruginosa; assay type: functional
[22] = test system: Bacillus subtilis; test: Antibacterial activity against Bacillus subtilis; assay type: functional
[23] = test system: Bacillus anthracis; test: Antibacterial activity against Bacillus anthracis; assay type: functional
[24] = Drug metabolism in human liver microsomes; assay type: ADME, Microsome; conditions: read-out: Drug metabolism
[25] = organism: Homo sapiens; test: Ratio IC50 for inhibition of JNK1 (unknown origin) over JNK3 (unknown origin)
[26] = organism: Homo sapiens; test: Ratio IC50 for inhibition of JNK2 (unknown origin) over JNK3 (unknown origin)
[27] = target: T2, Group XIIA secretory phospholipase A2 (Homo sapiens, UniProt Q9BZM1); test: Inhibition of human PLA2G12A
T2 sequence (Q9BZM1 whole entry): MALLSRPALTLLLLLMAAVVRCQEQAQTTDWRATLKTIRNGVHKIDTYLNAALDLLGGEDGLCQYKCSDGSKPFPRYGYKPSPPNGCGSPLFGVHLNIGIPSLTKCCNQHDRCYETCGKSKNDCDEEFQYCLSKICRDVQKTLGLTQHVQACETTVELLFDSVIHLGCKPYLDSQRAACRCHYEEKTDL

[28] = target: T3, Alpha amylase (Homo sapiens, UniProt P0DUB6); test: Inhibition of alpha-amylase (unknown origin)
T3 sequence (P0DUB6 whole entry): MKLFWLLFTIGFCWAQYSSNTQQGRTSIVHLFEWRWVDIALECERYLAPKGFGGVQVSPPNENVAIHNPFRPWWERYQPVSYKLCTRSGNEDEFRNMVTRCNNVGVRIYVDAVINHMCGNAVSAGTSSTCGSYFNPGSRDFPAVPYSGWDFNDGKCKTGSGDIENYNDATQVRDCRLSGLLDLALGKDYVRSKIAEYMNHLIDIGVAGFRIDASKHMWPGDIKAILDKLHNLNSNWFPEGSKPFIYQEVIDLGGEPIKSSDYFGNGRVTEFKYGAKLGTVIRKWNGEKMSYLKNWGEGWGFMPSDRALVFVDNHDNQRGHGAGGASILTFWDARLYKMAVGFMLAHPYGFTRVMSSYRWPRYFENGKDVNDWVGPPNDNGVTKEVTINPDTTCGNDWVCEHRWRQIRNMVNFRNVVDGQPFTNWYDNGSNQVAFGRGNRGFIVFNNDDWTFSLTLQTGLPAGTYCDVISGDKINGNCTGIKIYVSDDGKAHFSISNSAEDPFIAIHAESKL

[29] = target: Phospholipase A2, major isoenzyme (Sus scrofa, UniProt P00592); test: Inhibition of porcine PLA2G1B
Chain of Phospholipase A2, major isoenzyme (P00592 whole entry): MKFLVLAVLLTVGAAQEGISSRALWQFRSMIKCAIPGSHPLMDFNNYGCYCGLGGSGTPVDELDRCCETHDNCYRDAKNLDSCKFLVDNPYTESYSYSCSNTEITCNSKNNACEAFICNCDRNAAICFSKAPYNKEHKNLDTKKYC

[30] = target: T4, Phospholipase A2 group V (Homo sapiens, UniProt P39877); test: Inhibition of human PLA2G5
T4 sequence (P39877 whole entry): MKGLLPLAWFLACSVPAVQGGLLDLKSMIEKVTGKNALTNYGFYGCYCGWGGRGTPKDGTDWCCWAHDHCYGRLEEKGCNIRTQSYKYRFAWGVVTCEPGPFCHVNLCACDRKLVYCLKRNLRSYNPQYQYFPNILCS

[31] = target: T5, Group 10 secretory phospholipase A2 (Homo sapiens, UniProt O15496); test: Inhibition of human PLA2G10
T5 sequence (O15496 whole entry): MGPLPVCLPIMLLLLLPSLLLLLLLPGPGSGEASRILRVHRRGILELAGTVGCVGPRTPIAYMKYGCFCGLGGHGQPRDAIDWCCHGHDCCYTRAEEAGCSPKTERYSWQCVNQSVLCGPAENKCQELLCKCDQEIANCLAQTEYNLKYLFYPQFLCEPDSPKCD

[32] = target: T6, Phospholipase A2, membrane associated (Homo sapiens, UniProt P14555); test: Inhibition of human PLA2G2A
T6 sequence (P14555 whole entry): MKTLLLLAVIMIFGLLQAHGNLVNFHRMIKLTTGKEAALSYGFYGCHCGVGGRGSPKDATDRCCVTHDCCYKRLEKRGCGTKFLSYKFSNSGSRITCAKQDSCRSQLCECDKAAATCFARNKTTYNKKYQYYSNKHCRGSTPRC

[33] = organism: Homo sapiens; test: Binding affinity to estrogen receptor (unknown origin) relative to control
[34] = Metabolic stability in rat liver microsomes assessed as half-life; assay type: ADME, Microsome
[35] = organism: Homo sapiens; test: Binding affinity to Creatine kinase (CK) (unknown origin) relative to control
[36] = Binding affinity to Creatine kinase (CK) (unknown origin); design: species or system Homo sapiens
[37] = Aqueous solubility of the compound at pH 7.4; assay type: physicochemical; conditions: buffer
[38] = Binding affinity to estrogen receptor (unknown origin); design: species or system Homo sapiens
[39] = test system: Staphylococcus aureus; test: Antibacterial activity against Staphylococcus aureus; assay type: functional
[40] = test system: Candida; test: Antifungal activity against Candida species; assay type: functional
[41] = Cytotoxicity against rat myoblast L6 cells; assay type: toxicity, cell-based
[42] = test system: Trypanosoma brucei; test: Antitrypanosomal activity against Trypanosoma brucei; assay type: functional, organism-based
[43] = Ratio IC50 for cytotoxicity against rat myoblast L6 cells over IC50 for antitrypanosomal activity against Trypanosoma brucei; assay type: toxicity, cell-based; conditions: read-out: Ratio IC50
[44] = target: Glutamate receptor ionotropic AMPA (Homo sapiens, UniProt P42261+P42262+P42263+P48058); test: Antagonist activity at AMPA receptor (unknown origin); assay type: protein-complex assay
[45] = test system: HeLa; test: Antiproliferative activity against human HeLa cells; assay type: functional, cell-based
[46] = test system: SMMC-7721; test: Antiproliferative activity against human SMMC-7721 cells; assay type: functional, cell-based
[47] = test system: HT-29; test: Antiproliferative activity against human HT-29 cells; assay type: functional, cell-based
[48] = test system: Staphylococcus aureus; test: Antibacterial activity against methicillin-sensitive Staphylococcus aureus; assay type: functional
[49] = test system: Staphylococcus aureus; test: Antibacterial activity against methicillin-resistant Staphylococcus aureus; assay type: functional

`O=C(O)CC1CCc2cc(Br)cc3[nH]c(=O)c(=O)n1c23` (stereo not drawn) gave an IC50 [1] of over 30 µM, an IC50 [2] of 4.6 µM and an IC50 [3] of over 30 µM. The Ki [4] was 0.0099 µM.

In the case of `COc1ccc(N2CCN(CCCNC(=O)Cn3c(=O)c4cccn4c4cccnc43)CC2)cc1`, the IC50 [5] is reported as 0.173 µM.

For `O=c1[nH]c2ccccc2nc1/C=C/c1ccccn1`, the IC50 [6] was 0.058 µM, the inhibition [7] was 79.3% and the IC50 [8] was 0.46 µM. It also gave an IC50 [9] of 0.27 µM, an IC50 [10] of over 100 µM and an IC50 [11] of 2.89 µM. It also gave an IC50 [12] of 15.3 µM.

Compound `O=C(Cc1nc2ccccc2[nH]c1=O)Nn1c(-c2ccc(Cl)cc2)csc1=S` has an Activity [13] of 0.45 mm.

`O=C(O)CC1CCc2cc(Cl)cc3[nH]c(=O)c(=O)n1c23` (stereo not drawn) gave an Activity [14] of 90.3% and a Ki [4] of 0.0051 µM.

`O=C1CC(c2ccccc2)=NN1c1nc2ccccc2[nH]c1=O` gave an MIC [15] of 15.6 µg/mL (≈ 51.3 µM), an MIC [16] of 7.8 µg/mL (≈ 25.6 µM) and an MIC [17] of 62.5 µg/mL (≈ 205 µM). It also gave an MIC [18] of 7.8 µg/mL (≈ 25.6 µM), an MIC [19] of 7.8 µg/mL (≈ 25.6 µM) and an MIC [20] of 15.6 µg/mL (≈ 51.3 µM). It also gave an MIC [21] of 31.3 µg/mL (≈ 103 µM), an MIC [22] of 7.8 µg/mL (≈ 25.6 µM) and an MIC [23] of 7.8 µg/mL (≈ 25.6 µM).

For `O=c1c(-c2cccc([N+](=O)[O-])c2)nc2ccccc2n1Cc1ccccc1`, the metabolised [24] was under 40%.

For `O=C1Nc2ccccc2N/C1=C\C(=O)c1cccc2ccccc12`, the Ratio IC50 [25] was over 400 and the Ratio IC50 [26] was over 400.

`O=c1[nH]c2ccccc2nc1Cc1nnc(S)n1-c1ccccc1` gave an Activity [13] of 0.47 mm.

With `O=c1[nH]c2ccccc2n2c(-c3ccc(O)cc3O)ccc12` the IC50 [27] was 0.91 µM, the IC50 [28] was 1087.43 µM and the IC50 [29] was 14.8 µM. For the same compound, the IC50 [30] was 1.05 µM, the IC50 [31] was 0.61 µM and the IC50 [32] was 1.32 µM.

Compound `CC[C@H]1C(=O)N(CC)c2ccc(F)cc2N1C(=O)c1ccc(O)cc1O` has an Activity [33] of 92%, a half-life [34] of over 30 min and an Activity [35] of 44%. It also gave an EC50 [36] of 0.05 µM, a solubility [37] of over 100 µg/mL and an IC50 [38] of 0.0054 µM.

Work on `O=c1[nH]c2cc3cccnc3c(Cl)c2nc1CBr` yielded an MIC [15] of 31.2 µg/mL (≈ 96.3 µM), an MIC [39] of 31.2 µg/mL (≈ 96.3 µM) and an MIC [40] of 31.2 µg/mL (≈ 96.3 µM). It also gave an MIC [21] of 31.2 µg/mL (≈ 96.3 µM).

`CN1CC(=O)N(C)c2cc([N+](=O)[O-])ccc21` gave an IC50 [41] of 78.2 µM, an IC50 [42] of 3.6 µM and a selectivity ratio [43] of 21.6.

For `O=C(CC1CCc2cc(Cl)cc3[nH]c(=O)c(=O)n1c23)Nc1ccccc1` (stereo not drawn), the Activity [14] was 79.3% and the Ki [4] was 0.0066 µM.

`Cc1cc2[nH]c(=O)c(=O)n(C[C@H](N)C(=O)O)c2cc1C` gave an EC50 [44] of 290 µM.

`COC(=O)c1ccc2c(c1)NCCN2Cc1cc(OC)c(OC)c(OC)c1` gave an IC50 [45] of 0.194 µM, an IC50 [46] of 0.427 µM and an IC50 [47] of 0.51 µM.

For `COc1ccc2ncc(=O)n(CC[C@H]3OC[C@H](NCc4cc5c(cn4)OCCC5)CO3)c2c1`, the MIC [48] was 8.16 µg/mL (≈ 18 µM) and the MIC [49] was 32 µg/mL (≈ 70.7 µM).

Work on `C/C(=N\Nc1nc2ccccc2[nH]c1=O)c1cc2cc(Cl)ccc2oc1=O` yielded an MIC [15] of 7.8 µg/mL (≈ 20.5 µM), an MIC [39] of 15.6 µg/mL (≈ 41 µM) and an MIC [16] of 7.8 µg/mL (≈ 20.5 µM). The MIC [17] was 15.6 µg/mL (≈ 41 µM), the MIC [19] was 7.8 µg/mL (≈ 20.5 µM) and the MIC [20] was 7.8 µg/mL (≈ 20.5 µM). It also gave an MIC [22] of 7.8 µg/mL (≈ 20.5 µM) and an MIC [23] of 7.8 µg/mL (≈ 20.5 µM).
